How the values were obtained:
caspase 1 = molecular target: T1, caspase 1 (Homo sapiens, UniProt P29466); settings: cited from earlier work
T1 sequence (P29466 120-297 limits assumed): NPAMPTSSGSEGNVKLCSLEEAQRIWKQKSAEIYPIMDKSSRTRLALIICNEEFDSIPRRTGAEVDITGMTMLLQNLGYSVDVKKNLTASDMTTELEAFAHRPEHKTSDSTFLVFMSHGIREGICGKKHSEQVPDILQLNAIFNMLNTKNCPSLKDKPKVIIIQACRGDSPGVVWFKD
T1 sequence (P29466 317-404 limits assumed): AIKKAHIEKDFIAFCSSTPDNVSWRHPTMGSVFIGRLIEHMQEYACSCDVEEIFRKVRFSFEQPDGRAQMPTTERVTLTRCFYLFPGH

caspase 4 = molecular target: T2, caspase 4 (Homo sapiens, UniProt P49662); settings: cited from earlier work
T2 sequence (P49662 81-270 limits assumed): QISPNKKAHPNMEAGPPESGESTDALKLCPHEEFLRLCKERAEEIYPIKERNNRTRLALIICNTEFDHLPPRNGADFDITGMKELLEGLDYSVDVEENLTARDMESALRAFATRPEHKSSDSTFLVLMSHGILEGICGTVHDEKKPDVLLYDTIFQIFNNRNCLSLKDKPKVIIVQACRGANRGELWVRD
T2 sequence (P49662 290-377 limits assumed): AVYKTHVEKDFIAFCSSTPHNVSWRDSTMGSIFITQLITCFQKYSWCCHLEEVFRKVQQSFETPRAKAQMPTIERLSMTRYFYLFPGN

caspase 3 = molecular target: T3, caspase 3 (Homo sapiens, UniProt P42574); settings: cited from earlier work
T3 sequence (P42574 29-175 limits assumed): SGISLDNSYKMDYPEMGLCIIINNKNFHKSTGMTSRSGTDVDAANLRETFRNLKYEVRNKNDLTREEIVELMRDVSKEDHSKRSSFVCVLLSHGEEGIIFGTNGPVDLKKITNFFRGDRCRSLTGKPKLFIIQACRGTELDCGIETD
T3 sequence (P42574 176-277 limits assumed): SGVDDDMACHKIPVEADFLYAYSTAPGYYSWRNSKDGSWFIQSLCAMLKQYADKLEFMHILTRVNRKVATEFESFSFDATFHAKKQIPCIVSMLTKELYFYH

caspase 7 = molecular target: T4, caspase 7 (Homo sapiens, UniProt P55210); settings: cited from earlier work
T4 sequence (P55210 24-198 limits assumed): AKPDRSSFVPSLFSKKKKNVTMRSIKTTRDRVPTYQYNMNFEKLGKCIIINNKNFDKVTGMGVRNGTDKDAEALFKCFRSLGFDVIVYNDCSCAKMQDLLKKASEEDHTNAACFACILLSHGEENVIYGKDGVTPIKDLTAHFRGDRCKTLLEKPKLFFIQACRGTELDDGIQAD
T4 sequence (P55210 207-303 limits assumed): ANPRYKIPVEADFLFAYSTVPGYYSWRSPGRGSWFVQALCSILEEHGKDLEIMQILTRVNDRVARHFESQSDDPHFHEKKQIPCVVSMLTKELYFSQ

caspase 9 = assay: Caspase 9 activity (LEHD-pNA cleavage) in detached retina after injection of inhibitor at the time of detachment; assay type: in vivo, Brown-Norway rats; settings: 5 μl of 2 mM solution in DMSO into the subretinal space, 24 hours after retinal detachment, normalized to attached retina
Experimental: Briefly, rats were anesthetized with a 50:50 mix of ketamine (100 mg/ml) and xylazine (20 mg/ml), and pupils were dilated with topical phenylephrine (2.5%) and tropicamide (1%). A sclerotomy was created approximately 2 mm posterior to the limbus with a 20-guage microvitreoretinal blade (Walcott Scientific, Marmora, N.J.), with special caution to not damage the lens. A Glaser subretinal injector (32-gauge tip; BD Ophthalmic Systems, Sarasota, Fla.) connected to a syringe filled with 10 mg/ml sodium hyaluronate (Healon®; Pharmacia and Upjohn Co., Kalamazoo, Mich.) was introduced through the sclerotomy into the vitreous cavity. The tip of the subretinal injector was introduced into the subretinal space through a peripheral retinotomy, and the sodium hyaluronate was slowly injected. The neurosensory retina was thus detached from the underlying retinal pigment epithelium. In all experiments, approximately one-third to one-half of the retina was detached. Detachments were made in the left eye, with the right eye serving as the control. […]
Caspase 9 activity was measured using a calorimetric tetrapeptide LEHD-pNA cleavage assay kit according to the manufacturer's instructions (BioVision, Mountain View, Calif.). […] Absorbance was measured at 405 nm in a microplate reader (SpectraMAX 190, Molecular Devices). […]

photoreceptor cells = assay: TUNEL staining of outer nuclear layer after experimental retinal detachment; assay type: in vivo, Brown Norway rats; settings: detached retina (left eye); 5 μl of 2 mM in DMSO subretinal; 72 hours after detachment; TUNEL-positive cells/100 cells in outer nuclear layer
Experimental: Briefly, the retinal detachments were created in the left eyes of three Brown Norway rats, as described in Example 2, section 2.1. The detachment was located on the temporal portion of the retina, and comprised approximately one third of the total retinal area.
A first rat received the retinal detachment only. A second rat received the retinal detachment and a caspase 9 inhibitor in DMSO. Briefly, immediately after the retina was detached, 5 μl of the zLEHD.fmk (2 mM solution in DMSO) (BioVision) was injected into the subretinal space of the detached retina using a Hamilton Syringe (Hamilton Corp, Reno, Nev.). A third rat received the retinal detachment and DMSO (solvent control). Briefly, 5 μl of DMSO was injected into the subretinal space of the detached retinas as a control for the solvent in which the zLEHD.fmk was dissolved.
The rats were allowed to recover from the surgery and were returned to their cages, as per standard animal care protocols. Seventy-two hours (3 days) after creation of the detachments, the eyes were enucleated and immersion-fixed in 4% paraformaldehyde solution for 24 hours. The fixed eyes were then embedded in paraffin and sectioned for histologic analysis. […]
The number of TUNEL-positive cells/100 cells in the outer nuclear layer were counted for 3 high power fields per section for 2 separate slides.

Substance | Ki (caspase 1) [nM] | Ki (caspase 4) [nM] | Ki (caspase 3) [nM] | Ki (caspase 7) [nM] | caspase 9 activity, % of the control level (caspase 9) | % TUNEL positive cells (photoreceptor cells) [% TUNEL positive]
Ac-Tyr-Val-Ala-Asp-aldehyde | 10 | 10 | ≥ 50000 | ≥ 50000 | – | –
z-Leu-Glu-His-Asp-fluoromethylketone [zLEHD.fmk] | – | – | – | – | approximately 50% | 4.6
